≈ marks a conversion by molar mass, not a printed value. Read-outs that look alike come from different tables or passages of the source.
How the values were obtained:
[1] = Log D measurement (n-octanol/PBS shake, LC-MS/MS); format: physicochemical; details: pH 7.4, read-out: LogD7.4 (Oct/buff)
Description: Two replicates of test compounds (DMSO stock solution 10 mM, 2 μL/well) and QCs (DMSO 10 mM, 2 μL/well) were transferred from the storage tube to a 96-well cluster tube. Add buffer-saturated n-octanol ([…]) and n-octanol-saturated PBS (149 μL/well) to each well; vortex mix the cluster tube for 1 minute, mix by shaking on a plate shaker at 880 rpm for one hour, and then centrifuge at 4000 rpm for 10 minutes. Remove the cover pad, accurately measure a certain amount of n-octanol layer samples (4 μL/well) into a 96-well plate containing n-octanol internal standard diluent (796 μL/well); accurately measure a certain amount of buffer salt layer samples (30 μL/well) into a 96-well plate containing buffer internal standard diluent (570 μL/well); the dilution factor of the sample can be adjusted according to different properties of the sample. Samples were analyzed using a triple quadrupole mass spectrometer. The processed sample solution was analyzed by the fast isocratic elution and small column retention method, the concentration correction was carried out by dilution factor and internal standard, and the ratio of the corrected peak area was used to calculate the final result (Log D/Log P value).

[2] = Thermodynamic solubility assay (PBS pH 6.5; isopropyl myristate); format: physicochemical; details: thermodynamic from solid
Description: Thermodynamic Solubility Assay
Weigh not less than 2 mg of the sample powder into a Whatman Mini-UniPrep vial. If it is required to test the thermodynamic solubility of samples in multiple buffers, a separate vial is needed for each test; add 450 μL of buffer to each Whatman Mini-UniPrep vial, respectively; after that, install the piston cap of Whatman Mini-UniPrep and press it above the liquid level, so that the filter is in contact with the buffer during shaking; shake the solubility sample by vortexing for 1 minute.
Inject 3 UV standard solutions from low to high concentrations into the HPLC, then inject the diluent and supernatant of the test compound, with two replicates of test sample; and integrate the UV peaks. Simulate a standard curve and calculate the thermodynamic solubility of the sample.

[3] = Plasma stability, mini pig plasma; format: in vitro ADME, Mini Pigs; details: 37° C.
Description: (§1) In addition, the plasma stability of these compounds was determined. Briefly, the determination method comprises the following steps: • 1) Thaw the frozen mixed plasma in a 37° C. water bath before testing, and then centrifuge at 4000 rpm for 5 min to remove blood clots; • 2) Add 98 μL blank plasma into each well of the 96-well reaction plate; • 3) In addition to the blank samples, add 2 μL of 100 μM working solution of test compound into each well; • 3) Incubate the reaction plate at 37° C. and start timing. Incubation times were 0, 10, 30, 60 and 120 minutes, respectively, with two replicate wells at each time point; • 4) Terminate the incubation at the corresponding time point, and add 400 μL of acetonitrile solution containing 200 ng/mL tolbutamide and 200 ng/mL labetalol to precipitate proteins; • 5) Shake each plate for 20 minutes, then centrifuge at 4000 rpm for 20 minutes, transfer 50 μL of supernatant to another 96-well plate, and dilute each sample with 100 μL of pure water; • 6) Analyze the sample by LC-MS/MS.

[4] = Plasma stability, human plasma; format: in vitro ADME, Humans; details: 37° C.
Description: as §1
The experiment results are as follows, and it can be seen from the test results that the selected compounds are easily metabolized to the target compound in human plasma.

[5] = system: rash caused by small molecule EGFR inhibitors; assay: Prevention of rash caused by small molecule EGFR inhibitors, topical ointment, rat model; format: in vivo, SD rats
Procedure, shortened: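 Female SD rats (~200 g, dorsal hair shaved, 10/group) dosed daily by gavage with small-molecule EGFR inhibitors; compound ointment or blank matrix applied once daily to ~3 cm×3 cm of back, left 4 h, then wiped off. Repeated until obvious rash in controls; control rate = % of treated rats with milder rash than controls.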

[6] = system: skin contact delayed-type hypersensitivity; assay: Skin contact delayed-type hypersensitivity (DNFB) response test, ear swelling, topical ointment; format: in vivo; details: topical to ears, DNFB DTH, Balb/c mice, compared to blank ointment
Excerpt: Therapeutic Effect of Topical Administration of Compounds of the Present Application in Skin Contact Delayed-Type Hypersensitivity Response Test in Mice Delayed-type hypersensitivity (DTH) response in mouse skin is considered to be an effective model for clinical contact dermatitis and other T cell-mediated cutaneous immune diseases, such as atopic dermatitis and psoriasis. The DTH in mice shares the common features with these cutaneous immune diseases, including immunoinfiltration with an increase of inflammatory cytokines and hyperproliferation of keratinocytes. Balb/c mice were sensitized by topical administration of the antigen 2,4-dinitrofluorobenzene (DNFB) to the shaved back of mice on Days 0 and 1. On Day 5, the thickness of the ears was measured using an engineering micrometer. The measurement result was recorded and used as a baseline. The animals were then challenged with a total of 20 μL of DNFB (10 μL for the internal pinna and 10 μL for the external pinna) topically dosed to both ears at a concentration of 0.2%. The ears were measured again 24-72 hours after challenge. The compound ointment of the present application was applied topically to the ears of the animals throughout the allergic and challenge periods (Days −1˜7) or before or throughout the challenge period (generally Days 4˜7). The therapeutic effect was expressed by a reduction in ear swelling compared to that of the blank ointment. The compound causing a reduction of 20% or more was considered effective. Table 5 lists the skin contact delayed-type hypersensitivity experiment results in mice treated with the compound of the present application.

Which results are given for `COCCOCC(=O)OCCN(C)C(=O)n1ccc2c(N(C)[C@H]3CN(C(=O)CC#N)CC[C@H]3C)ncnc21` [Compound A18]?
logD [1]: 0.23; solubility thermodynamic at 24 h ([2]; aqueous buffer, PBS buffer pH 6.5, about 25° C., read-out: Thermodynamic Solubility pH = 6.5): > 4840 µg/mL; solubility thermodynamic at 24 h ([2]; oil or lipid, isopropyl myristate as vehicle, about 25° C., read-out: Thermodynamic Solubility in Isopropyl Myristate): 54.7 µg/mL (≈ 103 µM); half-life at 2 µM [3]: 9.1 min; % Retained ([3]; 0 min): 100.0%; % Retained ([3]; 10 min): 57.3%; % Retained ([3]; 30 min): 13.5%; % Retained ([3]; 60 min): 1.3%; % Retained ([3]; 120 min): 0.0%; half-life at 2 µM [4]: 1.9 min; % Retained ([4]; 0 min): 100.0%; % Retained ([4]; 10 min): 2.6%; % Retained ([4]; 30 min): 0.0%; % Retained ([4]; 60 min): 0.0%; % Retained ([4]; 120 min): 0.0%; Control Rate ([5]; BPI-7711 60 mg/kg once a day, ointment 3.0 wt% once a day, 14 days): 70%; Control Rate ([5]; EAI045 80 mg/kg once a day, ointment 0.3 wt% once a day, 11 days): 30%; Control Rate ([5]; EAI045 80 mg/kg once a day, ointment 3.0 wt% once a day, 11 days): 70%; Control Rate ([5]; EAI045 80 mg/kg once a day, ointment 5.0 wt% once a day, 11 days): 90%; Control Rate ([5]; Zorifertinib 60 mg/kg once a day, ointment 3.0 wt% once a day, 12 days): 60%; Reduction Rate of Ear Swelling ([6]; ointment 0.1 wt%): 23%; Reduction Rate of Ear Swelling ([6]; ointment 1.0 wt%): 29%; Reduction Rate of Ear Swelling ([6]; ointment 5.0 wt%): 37%; Reduction Rate of Ear Swelling ([6]; ointment 10.0 wt%): 45%
